# Experiment: solvent given as SMILES
smiles,measurement,setting,value
CC(C)(C)c1ccc(-n2c(-c3ccc(N(c4ccc(-c5ccc(N(c6ccc(-c7nc8c9ccccc9c9ccccc9c8n7-c7ccc(C(C)(C)C)cc7)cc6)c6ccc(-c7nc8c9ccccc9c9ccccc9c8n7-c7ccc(C(C)(C)C)cc7)cc6)cc5)cc4)c4ccc(-c5nc6c7ccccc7c7ccccc7c6n5-c5ccc(C(C)(C)C)cc5)cc4)cc3)nc3c4ccccc4c4ccccc4c32)cc1,absorption maximum,in ClCCl,377 nm
CN(C)c1ccc(/C=C/c2cnc(/C=C/c3ccc(C#N)cc3)o2)cc1,absorption maximum,in ClCCl,432 nm
CCN(C(C)=O)c1cc2c(cc1C)C(c1ccccc1C(=O)O)=C1CCCC(/C=C/C3=[N+](C)c4ccc5ccccc5c4C3(C)C)=C1O2,absorption maximum,in CCO,678 nm
CCCCCCCc1cc2c(o1)=CC1=C3c4cc5oc(CCCCCCC)cc5n4[B-](F)(F)[n+]4nnn(c43)[B-](F)(F)[N+]=21,absorption maximum,in C1CCOC1,676 nm
same,absorption maximum,in ClCCl,685 nm
COC(=O)c1ccc(/C=C/C(F)(F)F)c(N)c1,absorption maximum,in C1CCOC1,372 nm
Cc1cc(C)c(B(c2c(C)cc(C)cc2C)c2ccc3ccc4cccc5ccc2c3c45)c(C)c1,absorption maximum,in Cc1ccccc1,399 nm
C(/C=C/c1cc2c3c(c1)CCCN3CCC2)=C\c1ccncc1,absorption maximum,in C1COCCO1,413 nm
same,absorption maximum,in CC#N,413 nm
same,absorption maximum,in CCCCCCC,403 nm
same,absorption maximum,in CO,419 nm
CC(C)(C)c1ccc2c3c(c4ccc(C(C)(C)C)cc4c2c1)=[N+]1C(=C(c2ccccc2)c2c(Br)c4c5ccc(C(C)(C)C)cc5c5cc(C(C)(C)C)ccc5c4n2[B-]1(F)F)C=3Br,absorption maximum,in C1CCCCC1,689 nm
same,absorption maximum,in C1CCOC1,686 nm
same,absorption maximum,in CC#N,682 nm
same,absorption maximum,in Cc1ccccc1,691 nm
same,absorption maximum,in ClCCl,689 nm
CC(C)(C)C1Nc2c(Br)cc(Br)cc2C(=O)N1Cc1ccccc1 (stereo unspecified),absorption maximum,in CC#N,360 nm
same,absorption maximum,in CCCCCCCCCCCCCCCC,351 nm
same,absorption maximum,in CO,368 nm
same,absorption maximum,in ClC(Cl)Cl,359 nm
same,absorption maximum,in c1ccccc1,356 nm
COc1ccc(-c2nc3c(c4c2-c2ccccc2CC4)-c2ccccc2CC3)cc1,absorption maximum,in C1CCOC1,322 nm
same,absorption maximum,in CC#N,321 nm
same,absorption maximum,in CCCCCC,322 nm
same,absorption maximum,in CCOC(C)=O,310 nm
same,absorption maximum,in CO,318 nm
same,absorption maximum,in CS(C)=O,320 nm
same,absorption maximum,in Cc1ccccc1,320 nm
same,absorption maximum,in ClCCl,322 nm
CN(C)c1ccc(-c2ccc(-c3ccc(N(C)C)cc3)c3nc(-c4ccccc4)c(-c4ccccc4)nc23)cc1,absorption maximum,in ClC(Cl)Cl,443 nm
CN(C)c1ccc(-c2nc3cccnc3[nH]2)cc1,absorption maximum,in C1CCCCC1,351 nm
same,absorption maximum,in CC#N,346 nm
Nc1ccc2c(-c3ccc(Br)cc3)c3ccc(=[NH2+])cc-3oc2c1,absorption maximum,in CCO,514 nm
N#C/C(=C\c1ccc(Cl)cc1)c1nc(-c2ccccc2)cs1,absorption maximum,in CC#N,364 nm
CCC1=C(C)C2=C(c3cc(C(=O)Cl)cc(C(=O)Cl)c3)c3c(C)c(CC)c(C)n3[B-](F)(F)[N+]2=C1C,absorption maximum,in C1CCOC1,528 nm
same,absorption maximum,in CC#N,524 nm
same,absorption maximum,in CN(C)C=O,529 nm
same,absorption maximum,in Cc1ccccc1,531 nm
same,absorption maximum,in ClC(Cl)Cl,532 nm
CN1/C(=C/C=C(/C=C/C2=[N+](C)c3ccccc3C2(C)C)c2cc(F)cc(F)c2)C(C)(C)c2ccccc21,absorption maximum,in CCO,636 nm
same,absorption maximum,in CO,633 nm
same,absorption maximum,in CS(C)=O,644 nm
same,absorption maximum,in O,631 nm
CCOC(=O)c1c(-c2cc3ccccc3oc2=O)nn(-c2cccc(C)c2)c1C(=O)OCC,absorption maximum,in ClCCl,321 nm
C=CC1CN2CCC1CC2[C@H](O)c1ccnc2ccc(OC)cc12 (stereo partly specified),absorption maximum,in O,347 nm
CCOc1cccc(-c2nc3c(c4c2-c2ccccc2CC4)-c2ccccc2CC3)c1O,absorption maximum,in ClCCl,335 nm
CC(C)c1ccc(/C=C/c2nc3ccc(N(C)C)cc3s2)cc1,absorption maximum,in C1CCCCC1,388 nm
same,absorption maximum,in CC#N,392 nm
c1ccc2c(c1)OP1(=NP(Oc3ccc4ccc5cccc6ccc3c4c56)(Oc3ccc4ccc5cccc6ccc3c4c56)=NP(Oc3ccc4ccc5cccc6ccc3c4c56)(Oc3ccc4ccc5cccc6ccc3c4c56)=N1)Oc1ccccc1-2,absorption maximum,in ClCCl,343 nm
COc1ccc2c(c1)CCc1c-2nc(N)c(C#N)c1-c1ccc(Br)cc1,absorption maximum,in C1CCOC1,362 nm
same,absorption maximum,in C1COCCO1,366 nm
same,absorption maximum,in CC#N,364 nm
same,absorption maximum,in CCCCCC,360 nm
same,absorption maximum,in CCO,370 nm
same,absorption maximum,in CN(C)C=O,375 nm
same,absorption maximum,in CO,371 nm
same,absorption maximum,in CS(C)=O,379 nm
same,absorption maximum,in ClC(Cl)Cl,368 nm
same,absorption maximum,in ClCCl,365 nm
CC1=[N+]2C(=C(c3ccc(C=O)cc3)c3ccc(C)n3[B-]2(F)F)C=C1c1cc2n(c1)[B-](F)(F)[N+]1=CC=CC1=C2c1c(C)cc(C)cc1C,absorption maximum,in C1CCCCC1,604.5 nm
same,absorption maximum,in CCOC(C)=O,604.5 nm
CCN(CC)c1ccc(-c2nc3c(c4c2-c2ccc(C#N)cc2CC4)-c2ccc(C#N)cc2CC3)cc1,absorption maximum,in C1CCOC1,364 nm
same,absorption maximum,in CC#N,360 nm
same,absorption maximum,in CCCCCC,369 nm
same,absorption maximum,in CCOC(C)=O,358 nm
same,absorption maximum,in CO,360 nm
same,absorption maximum,in CS(C)=O,375 nm
same,absorption maximum,in Cc1ccccc1,368 nm
same,absorption maximum,in ClCCl,363 nm
c1ccc(-c2nc(-c3ccccc3)nc(-c3ccc(N4c5ccccc5C5(c6ccccc6-c6ccccc65)c5ccccc54)cc3)n2)cc1,absorption maximum,in Cc1ccccc1,399.05 nm
Cc1cc2ccccc2c2c1c1ccccc1n2C,absorption maximum,in ClCCl,300 nm
CC(C)[Si](C#Cc1c2nsnc2c(C#C[Si](C(C)C)(C(C)C)C(C)C)c2nc3c(ccc4cc5ccccc5cc43)nc12)(C(C)C)C(C)C,absorption maximum,in CCCCCC,579 nm
CNC(=O)[C@H](C)NC(=O)c1cccc2c1C#Cc1c(N)cccc1OCCCO2,absorption maximum,in CC#N,347 nm
same,absorption maximum,in ClCCl,345 nm
CC(C)(C)c1ccc(-c2nc(-c3ccc(-n4c5ccccc5c5c6oc7ccccc7c6ccc54)cc3)nc(-c3ccc(C(C)(C)C)cc3)n2)cc1,absorption maximum,in C1CCOC1,354.46 nm
COc1ccc(-c2cnc3cccc(-c4ccccc4)n23)cc1,absorption maximum,in ClCCl,341 nm
Cc1ccc2nc3[nH]c(=O)[nH]c(=O)c3nc2c1C,absorption maximum,in CC#N,388 nm
C(=C\c1cc(/C=C/c2ccc(N(c3ccccc3)c3ccccc3)cc2)ncn1)/c1ccc(N(c2ccccc2)c2ccccc2)cc1,absorption maximum,in ClCCl,427 nm
COc1ccc2cc(/C=C/C3=[O+][B-](F)(F)OC(/C=C/c4ccc5cc(OC)ccc5c4)=C3c3ccccc3)ccc2c1,absorption maximum,in ClCCl,526 nm
COc1cc2c(c(OC)c1OC)c1ccc3cccc4c5cccc6oc(=O)c2c(c65)c1c34,absorption maximum,in C1CCOC1,417 nm
CCCN1/C(=C/C=C/C=C/C2=[N+](CCC)c3ccccc3C2(C)C)C(C)(C)c2ccccc21,absorption maximum,in CO,637 nm
same,absorption maximum,in CS(C)=O,645 nm
same,absorption maximum,in O,633 nm
c1ccc(N2N=C(c3ccc4ccc5cccc6ccc3c4c56)CC2c2ccc3ccc4cccc5ccc2c3c45)cc1 (stereo unspecified),absorption maximum,in ClCCl,422 nm
CCCOc1ccc(/C=C/C=C/C=C/c2ccc([N+](=O)[O-])cc2)cc1,absorption maximum,in CC1CCCCC1,414 nm
same,absorption maximum,in CC#N,413 nm
same,absorption maximum,in Cc1ccccc1,420 nm
same,absorption maximum,in ClCCl,421 nm
Cc1cccn2c1cc1c3ccccc3nc(-c3cccs3)c12,absorption maximum,in CS(C)=O,398 nm
COC(=O)C1=C(C(=O)OC)C2=C[C@H]3c4ccccc4[C@]2([Se]1)c1ccccc13,absorption maximum,in ClCCl,370 nm
Cc1ccc(-c2ccc(/C=C/c3cccs3)cn2)nc1,absorption maximum,in CC#N,348 nm
CC(C)[Si](C#Cc1c2cc3ccccc3cc2c(C#Cc2ccc(Br)cc2)c2cc3ccccc3cc12)(C(C)C)C(C)C,absorption maximum,in ClCCl,654 nm
COc1cc2c(cc1-c1ccc(C=O)cc1)Cc1c3c(c4c(c1-2)-c1cc(OC)c(-c2ccc(C=O)cc2)cc1C4)C(=O)N(CCC(C)C)C3=O,absorption maximum,in C1CCOC1,414 nm
CCN(CC)c1ccc(/C=C2\CC/C(=C\c3ccc(N(c4ccc(/C=C5\CC/C(=C\c6ccc(N(CC)CC)cc6)C5=C(C#N)C#N)cc4)c4ccc(/C=C5\CC/C(=C\c6ccc(N(CC)CC)cc6)C5=C(C#N)C#N)cc4)cc3)C2=C(C#N)C#N)cc1,absorption maximum,in CN(C)C=O,590 nm
CC[n+]1c(-c2ccccc2)c2cc(N)ccc2c2ccc(NC(N)=[NH2+])cc21,absorption maximum,in O,444 nm
CCC1=C(C)C2=Cc3c4ccccc4c4n3[B-](c3cc[n+](C)cc3)(Oc3ccccc3-4)[N+]2=C1C=Cc1ccc(OC)cc1 (stereo unspecified),absorption maximum,in CO,695 nm
same,absorption maximum,in CS(C)=O,703 nm
COc1ccc(C2=C/C(=C\c3ccc([N+](=O)[O-])cc3)C(=O)N2CC(C)C)cc1,absorption maximum,in C1COCCO1,465 nm
Cc1c(COC(=O)c2ccccc2)n2c(OCC(=O)c3ccccc3)c(C)c(=O)n2c1=O,absorption maximum,in CCO,381 nm
CC(C)(C)c1ccc(-c2ccc(C(C)(C)C)cc2)cc1,absorption maximum,in C1CCCCC1,256 nm
COc1ccc2oc(-c3cc4cc(OC)ccc4oc3=O)cc2c1,absorption maximum,in CC#N,382 nm
same,absorption maximum,in CCOC(C)=O,384 nm
same,absorption maximum,in CS(C)=O,389 nm
same,absorption maximum,in Cc1ccccc1,388 nm
same,absorption maximum,in O,347 nm
c1ccc(N(c2ccccc2)c2ccc(-c3cncs3)cc2)cc1,absorption maximum,in CO,346 nm
CCCCCCN1C(=O)c2cccc3c(-c4cc5ccccc5s4)ccc(c23)C1=O,absorption maximum,in ClC(Cl)Cl,378 nm
CC1(C)C(/C=C/c2cc3ccc(O)cc3oc2=O)=[N+](CCCS(=O)(=O)[O-])c2ccc(S(=O)(=O)O)cc21,absorption maximum,in CCO,630 nm
same,absorption maximum,in CS(C)=O,485 nm
same,absorption maximum,in O,573 nm
COc1cc(C2=c3c(c4ccc(C(C)(C)C)cc4c4c(OC)c(OC)c(OC)cc34)=[N+]3C2=Nc2c(-c4cc(OC)c(OC)c(OC)c4)c4c5cc(OC)c(OC)c(OC)c5c5cc(C(C)(C)C)ccc5c4n2[B-]3(F)F)cc(OC)c1OC,absorption maximum,in Cc1ccccc1,808 nm
Cc1ccc(C2=C3C=CC(C#Cc4ccccc4)=[N+]3[B-](F)(F)n3c(C#Cc4ccccc4)ccc32)cc1,absorption maximum,in C1CCCCC1,615 nm
same,absorption maximum,in C1CCOC1,610 nm
same,absorption maximum,in C1COCCO1,612 nm
same,absorption maximum,in CCOC(C)=O,607 nm
same,absorption maximum,in CO,605 nm
same,absorption maximum,in Cc1ccccc1,614 nm
same,absorption maximum,in ClC(Cl)Cl,614 nm
same,absorption maximum,in ClCCl,614 nm
Cc1nnc(-c2ccc(-n3c4ccccc4c4ccccc43)cc2)o1,absorption maximum,in Cc1ccccc1,340 nm
CC1(C)c2ccccc2N(c2ccc3c(c2)c2ccccc2n2c4ccccc4nc32)c2ccccc21,absorption maximum,in Cc1ccccc1,376 nm

# Source: the Deep4Chem optical property database
